Test results as given in US7816099B1, “Enzyme assay and use thereof” (Myrexis, Inc., priority 2005, dated 2010).

Columns and labels:
Aurora-A = biological target: T1, Aurora-A (Homo sapiens, UniProt O14965); assay: High throughput fluorometric assay for the TPX2-stimulated protein kinase activity of Aurora-A; type: biochemical; conditions: FIG. 4E; wild type or D274A mutant enzyme at 25 nM or 1.25 μM ADP; 5 μM ATP, 10 mM MgCl2
T1 construct: Aurora-A(101-403) (the latter protein was generated by cleavage of the GST fusion precursor with thrombin); GST (cleaved yes); made in house
T1 sequence (O14965 101-403): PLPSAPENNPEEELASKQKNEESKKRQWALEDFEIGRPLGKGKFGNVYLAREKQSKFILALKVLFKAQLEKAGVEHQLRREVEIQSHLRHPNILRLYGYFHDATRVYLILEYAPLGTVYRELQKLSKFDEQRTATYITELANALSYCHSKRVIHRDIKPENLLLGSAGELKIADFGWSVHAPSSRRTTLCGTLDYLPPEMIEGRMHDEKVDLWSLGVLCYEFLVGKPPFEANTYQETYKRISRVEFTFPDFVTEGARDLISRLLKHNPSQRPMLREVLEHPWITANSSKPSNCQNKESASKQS
T1 sequence (Q9ULW0 1-50 partner limits assumed): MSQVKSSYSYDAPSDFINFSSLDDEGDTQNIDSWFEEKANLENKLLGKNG
Method: High throughput fluorometric assay for the TPX2-stimulated protein kinase activity of Aurora-A. All the experiments were conducted using 50 mM Tris-HCl, pH 7.5, 5 μM ATP, 10 mM MgCl2 as the assay buffer. The data shown on FIGS. 4A and 4B were generated using two-step assay procedure including Aurora-A-catalyzed kinase reaction followed by the assay of ADP produced. All other experiments were performed using single step assay format. FIG. 4A, comparative analysis of kinase activities of the wild type enzyme and D274A mutant protein performed in the absence of TPX-2. FIG. 4B, effects of GST-TPX2(1-50) on kinase activity. FIG. 4C, time course of signal development for the assays conducted using 25 nM kinase in the absence or in the presence of 50 nM GST-TPX2(1-50). The D274A mutant enzyme was used as negative control. FIG. 4D, time dependence of S/B ratio calculated using data shown on FIG. 4C. The background was defined as the fluorescence intensity of the samples supplemented with the mutant Aurora-A. FIG. 4E, inhibition of Aurora-A activity by staurosporine. The assays were performed using wild type or D274A mutant enzyme at 25 nM concentrations or 1.25 μM ADP. FIG. 4F, SDS-PAGE analysis of the recombinant GST-TPX2(1-50) and Aurora-A(101-403) (the latter protein was generated by cleavage of the GST fusion precursor with thrombin).

Mst4 kinase = biological target: T2, Mst4 kinase (Homo sapiens, UniProt Q9P289); assay: High throughput assay for the Mst4 protein kinase activity; type: biochemical; conditions: FIG. 5C; 25 nM protein kinase; 1.25 μM ADP in control samples
T2 construct: SDS-PAGE analysis of GST-Mst4(1-317) purified from bacterial cells; made in house; host or cells: bacterial cells
T2 sequence (Q9P289 1-317): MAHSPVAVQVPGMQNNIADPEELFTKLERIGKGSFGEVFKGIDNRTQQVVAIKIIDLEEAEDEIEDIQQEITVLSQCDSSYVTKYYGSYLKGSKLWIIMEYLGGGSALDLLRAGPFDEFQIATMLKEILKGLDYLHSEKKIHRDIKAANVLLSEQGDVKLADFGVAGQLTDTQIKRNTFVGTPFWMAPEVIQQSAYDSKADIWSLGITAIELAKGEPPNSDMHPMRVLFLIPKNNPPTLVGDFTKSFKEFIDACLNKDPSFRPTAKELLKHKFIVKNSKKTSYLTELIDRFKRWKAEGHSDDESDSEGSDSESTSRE
Method: High throughput assay for the Mst4 protein kinase activity. […] FIG. 5C, inhibition of Mst4 kinase by staurosporine. The assay was performed using 25 nM protein kinase. The combination of Mst4 and ATP was substituted with 1.25 μM ADP in control samples.

With `CN[C@@H]1C[C@H]2O[C@@](C)([C@@H]1OC)n1c3ccccc3c3c4c(c5c6ccccc6n2c5c31)C(=O)NC4` [staurosporine] the “inhibition of Aurora-A activity” value (Aurora-A) was “inhibition” and the “inhibition of Mst4 kinase” value (Mst4 kinase) was “inhibition”.
